Measured values reported in patent US7485641B2, “Substituted 3-amino-pyrrolidino-4-lactams” (Pfizer, Inc., priority 2006, dated 2009).
Structures can show the parent of a compound that is named as a salt.

These compounds were tested against T1, DPP-IV (Homo sapiens, UniProt P27487) (assay: In vitro assay for dipeptidyl peptidase inhibition). Conditions: at 300 nM; n-value given in brackets; read-out: DPP-IV Percent Inhibition at 300 nM.
T1 construct: purchased Enzyme Systems Products SPE-01
Assay type: biochemical

T1 sequence (P27487 whole entry, species assumed): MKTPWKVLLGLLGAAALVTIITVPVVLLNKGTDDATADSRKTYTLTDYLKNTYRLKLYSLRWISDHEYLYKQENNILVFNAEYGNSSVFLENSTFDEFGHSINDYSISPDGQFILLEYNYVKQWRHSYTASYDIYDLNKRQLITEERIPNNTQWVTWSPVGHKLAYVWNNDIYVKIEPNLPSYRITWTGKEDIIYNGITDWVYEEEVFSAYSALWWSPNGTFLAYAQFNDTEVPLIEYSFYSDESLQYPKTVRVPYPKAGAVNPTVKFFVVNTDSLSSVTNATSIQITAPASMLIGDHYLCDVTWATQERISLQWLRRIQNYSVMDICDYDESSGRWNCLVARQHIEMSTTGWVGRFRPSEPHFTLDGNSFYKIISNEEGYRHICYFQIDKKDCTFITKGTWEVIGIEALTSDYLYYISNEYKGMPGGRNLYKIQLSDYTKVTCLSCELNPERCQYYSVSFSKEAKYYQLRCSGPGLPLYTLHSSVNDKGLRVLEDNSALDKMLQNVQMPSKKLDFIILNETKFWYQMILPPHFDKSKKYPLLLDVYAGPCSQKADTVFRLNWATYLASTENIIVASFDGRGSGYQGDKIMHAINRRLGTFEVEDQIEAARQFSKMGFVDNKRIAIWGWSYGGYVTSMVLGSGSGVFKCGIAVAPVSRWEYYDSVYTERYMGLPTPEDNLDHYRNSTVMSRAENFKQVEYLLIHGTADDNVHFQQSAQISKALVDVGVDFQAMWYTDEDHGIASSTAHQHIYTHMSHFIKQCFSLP

inhibition at 0.3 µM [%] | SMILES
23.2 | N[C@H]1CN(c2cc(OCC(F)(F)C(F)F)ncn2)C[C@@H]1N1CCCCC1=O [Example 94, 1-((3S,4S)-4-Amino-1-(6-(2,2,3,3-tetrafluoropropoxy)pyrimidin-4-yl)pyrrolidin-3-yl)piperidin-2-one trifluoroacetate]
17.7 | CC(C)C(C)Oc1cc(N2C[C@H](N)[C@@H](N3CCCCC3=O)C2)ncn1 (stereo partly drawn) [Example 95, 1-((3S,4S)-4-Amino-1-(6-(3-methylbutan-2-yloxy)pyrimidin-4-yl)pyrrolidin-3-yl)piperidin-2-one trifluoroacetate]
47 | COc1ccc2ncnc(N3C[C@H](N)[C@@H](N4CCCCC4=O)C3)c2c1 [Example 107, 1-((3S,4S)-4-amino-1-(6-methoxyquinazolin-4-yl)pyrrolidin-3-yl)piperidin-2-one]

Same assay, conditions: n-value given in brackets; read-out: DPP-IV IC50

IC50 [nM] | SMILES
1.99 | CS(=O)(=O)c1ccccc1S(=O)(=O)Oc1ccc2c(N3C[C@H](N)[C@@H](N4CCCCC4=O)C3)ncnc2c1 [Example 96, 4-((3S,4S)-3-amino-4-(2-oxopiperidin-1-Vl)pyrrolidin-1-yl)quinazolin-7-yl 2-(methylsulfonyl)benzenesulfonate]
< 1 | CS(=O)(=O)c1ccccc1S(=O)(=O)Oc1ccc2c(N3C[C@H](N)[C@@H](N4CC(F)(F)CCC4=O)C3)ncnc2c1 [Example 97, 4-((3S,4S)-3-amino-4-(5,5-difluoro-2-oxopiperidin-1-yl)pyrrolidin-1-yl)quinazolin-7-yl 2-(methylsulfonyl)benzenesulfonate]
34.2 | COc1ccc2c(N3C[C@H](N)[C@@H](N4CC(F)(F)CCC4=O)C3)ncnc2c1 [Example 98, 1-((3S,4S)-4-amino-1-(7-methoxyquinazolin-4-yl)pyrrolidin-3-yl)-5,5-difluoropiperidin-2-one]
38.4 | CCSc1ccc2c(N3C[C@H](N)[C@@H](N4CC(F)(F)CCC4=O)C3)ncnc2c1 [Example 99, 1-((3S,4S)-4-amino-1-(7-(ethylthio)quinazolin-4-yl)pyrrolidin-3-yl)-5,5-difluoropiperidin-2-one]
44.7 | CC(C)Oc1ccc2c(N3C[C@H](N)[C@@H](N4CC(F)(F)CCC4=O)C3)ncnc2c1 [Example 100, 1-((3S,4S)-4-amino-1-(7-isopropoxyquinazolin-4-yl)pyrrolidin-3-yl)-5,5-difluoropiperidin-2-one]
122 | N[C@H]1CN(c2ncnc3cc(Oc4ccccc4)ccc23)C[C@@H]1N1CC(F)(F)CCC1=O [Example 101, 1-((3S,4S)-4-amino-1-(7-phenoxyquinazolin-4-yl)pyrrolidin-3-yl)-5,5-difluoropiperidin-2-one]
61.4 | N[C@H]1CN(c2ncnc3cc(Cl)ccc23)C[C@@H]1N1CCCCC1=O [Example 102, 1-[(3S,4S)-4-Amino-1-(7-chloro-quinazolin-4-yl)-pyrrolidin-3-yl]-piperidin-2-one hydrochloride]
26.1 | COc1ccc2c(N3C[C@H](N)[C@@H](N4CCCCC4=O)C3)ncnc2c1 [Example 103, 1-[(3S,4S)-4-Amino-1-(7-methoxy-quinazolin-4-yl)-pyrrolidin-3-yl]-piperidin-2-one hydrochloride]
132 | N[C@H]1CN(c2ncnc3ccc(Cl)cc23)C[C@@H]1N1CCCCC1=O [Example 104, 1-[(3S,4S)-4-Amino-1-(6-chloro-quinazolin-4-yl)-pyrrolidin-3-yl]-piperidin-2-one hydrochloride]
241 | N[C@H]1CN(c2ncnc3cc(F)ccc23)C[C@@H]1N1CCCCC1=O [Example 105, 1-((3S,4S)-4-Amino-1-(7-fluoroquinazolin-4-yl)pyrrolidin-3-yl)piperidin-2-one trifluoroacetate]
99.6 | COc1cc2ncnc(N3C[C@H](N)[C@@H](N4CCCCC4=O)C3)c2cc1Cl [Example 106, 1-((3S,4S)-4-Amino-1-(6-chloro-7-methoxyquinazolin-4-yl)pyrrolidin-3-yl)piperidin-2-one trifluoroacetate]
175 | COc1cccc2c(N3C[C@H](N)[C@@H](N4CCCCC4=O)C3)ncnc12 [Example 108, 1-((3S,4S)-4-Amino-1-(8-methoxyquinazolin-4-yl)pyrrolidin-3-yl)piperidin-2-one trifluoroacetate]
110 | N[C@H]1CN(c2ncnc3c(F)cccc23)C[C@@H]1N1CCCCC1=O [Example 109, 1-((3S,4S)-Amino-1-(8-fluoroquinazolin-4-yl)pyrrolidin-3-yl)piperidin-2-one trifluoroacetate]
47.2 | N[C@H]1CN(c2ncnc3cc(C(F)(F)F)ccc23)C[C@@H]1N1CCCCC1=O [Example 110, 1-((3S,4S)-4-amino-1-(7-(trifluoromethyl)quinazolin-4-yl)pyrrolidin-3-yl)piperidin-2-one]
228 | N[C@H]1CN(c2ncnc3cc(C4CCCC4)ccc23)C[C@@H]1N1CCCCC1=O [Example 111, 1-((3S,4S)-4-amino-1-(7-cyclopentylquinazolin-4-yl)pyrrolidin-3-yl)piperidin-2-one]
72.5 | N[C@H]1CN(c2ncnc3cc(Oc4ccccc4)ccc23)C[C@@H]1N1CCCCC1=O [Example 113, 1-((3S,4S)-4-amino-1-(7-phenoxyquinazolin-4-yl)pyrrolidin-3-yl)piperidin-2-one]
109 | N[C@H]1CN(c2ncnc3cc(OCc4ccccc4)ccc23)C[C@@H]1N1CCCCC1=O [Example 114, 1-((3S,4S)-4-amino-1-(7-(benzyloxy)quinazolin-4-yl)pyrrolidin-3-yl)piperidin-2-one]

IC50 [nM] | SMILES
29.7 | CC(C)Oc1ccc2c(N3C[C@H](N)[C@@H](N4CCCCC4=O)C3)ncnc2c1 [Example 115, 1-((3S,4S)-4-amino-1-(7-isopropoxyquinazolin-4-yl)pyrrolidin-3-yl)piperidin-2-one]
55.9 | CC(C)c1ccc2c(N3C[C@H](N)[C@@H](N4CCCCC4=O)C3)ncnc2c1 [Example 116, 1-((3S,4S)-4-amino-1-(7-isopropylquinazolin-4-yl)pyrrolidin-3-yl)piperidin-2-one]
206 | CCC(CC)c1ccc2c(N3C[C@H](N)[C@@H](N4CCCCC4=O)C3)ncnc2c1 [Example 117, 1-((3S,4S)-4-amino-1-(7-(pentan-3-yl)quinazolin-4-yl)pyrrolidin-3-yl)piperidin-2-one]
85.2 | N#CCCc1ccc2c(N3C[C@H](N)[C@@H](N4CCCCC4=O)C3)ncnc2c1 [Example 118, 3-(4-((3S,4S)-3-amino-4-(2-oxopiperidin-1-yl)pyrrolidin-1-yl)quinazolin-7-yl)propanenitrile]
107 | N[C@H]1CN(c2ncnc3cc(OC4CCCC4)ccc23)C[C@@H]1N1CCCCC1=O [Example 119, 1-((3S,4S)-4-amino-1-(7-(cyclopentyloxy)quinazolin-4-yl)pyrrolidin-3-yl)piperidin-2-one]
79.8 | N[C@H]1CN(c2ncnc3cc(Oc4cccc(F)c4)ccc23)C[C@@H]1N1CCCCC1=O [Example 120, 1-((3S,4S)-4-amino-1-(7-(3-fluorophenoxy)quinazolin-4-yl)pyrrolidin-3-yl)piperidin-2-oneformate]
183 | N#Cc1ccc(Oc2ccc3c(N4C[C@H](N)[C@@H](N5CCCCC5=O)C4)ncnc3c2)nc1 [Example 121, 6-(4-((3S,4S)-3-amino-4-(2-oxopiperidin-1-yl)pyrrolidin-1-yl)quinazolin-7-yloxy)nicotinonitrile]
148 | N[C@H]1CN(c2ncnc3cc(OCC(F)(F)F)ccc23)C[C@@H]1N1CCCCC1=O [Example 122, 1-((3S,4S)-4-amino-1-(7-(2,2,2-trifluoroethoxy)quinazolin-4-yl)pyrrolidin-3-yl)piperidin-2-one]
113 | N[C@H]1CN(c2ncnc3cc(O)ccc23)C[C@@H]1N1CCCCC1=O [Example 123, 1-((3S,4S)-4-amino-1-(7-hydroxyquinazolin-4-yl)pyrrolidin-3-yl)piperidin-2-one trifluoroacetate]
33.2 | N[C@H]1CN(c2ncnc3cc(OC(F)F)ccc23)C[C@@H]1N1CCCCC1=O [Example 124, 1-((3S,4S)-4-amino-1-(7-(difluoromethoxy)quinazolin-4-yl)pyrrolidin-3-yl)piperidin-2-one]
66.8 | CC(C)(O)c1ccc2c(N3C[C@H](N)[C@@H](N4CCCCC4=O)C3)ncnc2c1 [Example 126, 1-((3S,4S)-4-amino-1-(7-(2-hydroxypropan-2-yl)quinazolin-4-yl)pyrrolidin-3-yl)piperidin-2-one]
137 | N[C@H]1CN(c2ncnc3cc(Oc4ccc(C(F)(F)F)cn4)ccc23)C[C@@H]1N1CCCCC1=O [Example 127, 1-((3S,4S)-4-amino-1-(7-(5-(trifluoromethyl)pyridin-2-yloxy)quinazolin-4-yl)pyrrolidin-3-yl)piperidin-2-one]
222 | N[C@H]1CN(c2ncnc3cc(Oc4ccc(F)cc4)ccc23)C[C@@H]1N1CCCCC1=O [Example 128, 1-((3S,4S)-4-amino-1-(7-(4-fluorophenoxy)quinazolin-4-yl)pyrrolidin-3-yl)piperidin-2-one]
61.5 | COc1ccc(Oc2ccc3c(N4C[C@H](N)[C@@H](N5CCCCC5=O)C4)ncnc3c2)cc1 [Example 129, 1-((3S,4S)-4-amino-1-(7-(4-methoxyphenoxy)quinazolin-4-yl)pyrrolidin-3-yl)piperidin-2-one]
60.5 | N[C@H]1CN(c2ncnc3cc(Sc4cccc(F)c4)ccc23)C[C@@H]1N1CCCCC1=O [Example 130, 1-((3S,4S)-4-amino-1-(7-(3-fluorophenylthio)quinazolin-4-yl)pyrrolidin-3-yl)piperidin-2-oneformate]
189 | N[C@H]1CN(c2ncnc3cc(Oc4ccc(OC(F)(F)F)cc4)ccc23)C[C@@H]1N1CCCCC1=O [Example 131, 1-((3S,4S)-4-amino-1-(7-(4-(trifluoromethoxy)phenoxy)quinazolin-4-yl)pyrrolidin-3-yl)piperidin-2-oneformate]

SMILES | IC50 [nM]
N[C@H]1CN(c2ncnc3cc(OC4CCC4)ccc23)C[C@@H]1N1CCCCC1=O [Example 125, 1-((3S,4S)-4-amino-1-(7-cyclobutoxyquinazolin-4-yl)pyrrolidin-3-yl)piperidin-2-one] | 101
